Assay results published in paper PMC7005530, “A selective androgen receptor modulator SARM‐2f activates androgen receptor, increases lean body mass, and suppresses blood lipid levels in cynomolgus monkeys” (Pharmacology Research & Perspectives, 2020).

Legend:
rat AR = molecular target: T1, rat AR (Rattus norvegicus, UniProt P15207); test: AR reporter assay (MMTV-luc) in COS7 cells expressing rat AR; assay type: cell-based
T1 construct: expressed in transfected cells; host or cells: COS7
T1 sequence (P15207 1-902): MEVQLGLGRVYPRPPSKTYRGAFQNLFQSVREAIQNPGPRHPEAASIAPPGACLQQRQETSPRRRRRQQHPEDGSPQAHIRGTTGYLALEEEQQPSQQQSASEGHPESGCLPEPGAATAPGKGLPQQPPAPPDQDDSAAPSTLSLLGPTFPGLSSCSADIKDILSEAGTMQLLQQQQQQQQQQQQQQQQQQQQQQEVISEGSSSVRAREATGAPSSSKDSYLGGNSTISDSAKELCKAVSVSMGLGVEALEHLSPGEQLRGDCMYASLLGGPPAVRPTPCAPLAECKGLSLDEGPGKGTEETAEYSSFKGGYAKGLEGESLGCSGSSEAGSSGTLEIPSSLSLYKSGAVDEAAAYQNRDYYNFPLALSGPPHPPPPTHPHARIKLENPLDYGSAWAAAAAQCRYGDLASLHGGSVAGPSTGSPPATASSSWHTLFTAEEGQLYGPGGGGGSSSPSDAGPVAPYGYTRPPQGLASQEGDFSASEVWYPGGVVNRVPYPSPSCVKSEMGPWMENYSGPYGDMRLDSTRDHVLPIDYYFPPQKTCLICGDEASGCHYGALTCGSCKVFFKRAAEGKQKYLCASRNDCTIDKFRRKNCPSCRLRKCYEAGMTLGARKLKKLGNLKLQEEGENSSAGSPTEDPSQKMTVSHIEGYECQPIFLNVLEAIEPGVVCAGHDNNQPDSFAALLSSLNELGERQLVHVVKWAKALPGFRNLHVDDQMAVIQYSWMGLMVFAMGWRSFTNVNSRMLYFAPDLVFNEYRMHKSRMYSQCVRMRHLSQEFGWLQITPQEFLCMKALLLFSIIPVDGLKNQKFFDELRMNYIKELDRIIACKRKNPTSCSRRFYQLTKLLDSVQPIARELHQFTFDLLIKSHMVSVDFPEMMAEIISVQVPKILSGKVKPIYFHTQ
Method: Two hours post‐transfection, the cells were plated in 96‐well plates at a density of 2 × 10^4 cells/well, and cultured at 37°C for 3 hours. […] Luciferase activity was measured using the Steady‐Glo Luciferase assay system (Promega) and an Envision Multimode Plate Reader (PerkinElmer).
(§1) In the reporter assays, EC50 was calculated using Graph Pad Prism version 6. The effects of SARM‐2f or TE on BW and LBM were analyzed by t test, with Bonferroni correction for repeated measurements.

[1] = Plasma lipid levels after 4-week treatment; assay type: in vivo, cynomolgus monkey; settings: after 4 wks, SARM‐2f 1, 3, 10 mg/kg daily p.o., vs vehicle
Method: The monkeys were divided into five groups by weight randomization (MiTOX system ver2.0, Mitsui E & S Systems Research Inc) on the last day of the habituation period. SARM‐2f was orally administered at daily doses of 1, 3, or 10 mg/kg for 4 weeks between 9:00 and 11:00 hours, using 0.5% w/v methylcellulose as the vehicle. TE was injected intramuscularly on Day 0 and Day 13; the dosing start was set at Day 0 at a dose of 2 mg/kg using sesame oil as the vehicle. The route of administration and dose of TE was selected according to the route and dose mentioned in the clinical indications. BW was measured every week before dosing (between 8:30 and 9:00 hours), and LBM was measured every 2 weeks after dosing and before feeding (between 11:30 and 14:30 hours) using an X‐ray bone density measuring device (Discovery, HOLOGIC USA). Blood collection for lipid profiles was conducted on the day after the completion of the four‐week multiple administration of SARM‐2f or TE. Plasma levels of total cholesterol (T‐chol), HDL‐c, low‐density lipoprotein cholesterol (LDL‐c), triglyceride (TG), alanine aminotransferase (ALT), and […] (AST) were measured by an automatic JCA‐BM8 analysis system (JEOL Ltd.). Plasma lipoprotein (a) (Lp (a)) levels were measured using a multiplate absorbance measuring system (Multiscan Ascent, Thermo Fisher Scientific KK). […]

[2] = Liver function tests (AST, ALT) after 4-week treatment; assay type: in vivo, cynomolgus monkey; settings: after 4 wks; SARM‐2f 1, 3, 10 mg/kg daily p.o.; TE 2 mg/kg every 2 wks; vs vehicle
Method: The monkeys were divided into five groups by weight randomization (MiTOX system ver2.0, Mitsui E & S Systems Research Inc) on the last day of the habituation period. SARM‐2f was orally administered at daily doses of 1, 3, or 10 mg/kg for 4 weeks between 9:00 and 11:00 hours, using 0.5% w/v methylcellulose as the vehicle. TE was injected intramuscularly on Day 0 and Day 13; the dosing start was set at Day 0 at a dose of 2 mg/kg using sesame oil as the vehicle. The route of administration and dose of TE was selected according to the route and dose mentioned in the clinical indications. BW was measured every week before dosing (between 8:30 and 9:00 hours), and LBM was measured every 2 weeks after dosing and before feeding (between 11:30 and 14:30 hours) using an X‐ray bone density measuring device (Discovery, HOLOGIC USA). Blood collection for lipid profiles was conducted on the day after the completion of the four‐week multiple administration of SARM‐2f or TE. Plasma levels of total cholesterol (T‐chol), HDL‐c, low‐density lipoprotein cholesterol (LDL‐c), triglyceride (TG), alanine aminotransferase (ALT), and […] (AST) were measured by an automatic JCA‐BM8 analysis system (JEOL Ltd.). Plasma lipoprotein (a) (Lp (a)) levels were measured using a multiplate absorbance measuring system (Multiscan Ascent, Thermo Fisher Scientific KK).
as §1

[3] = tested on: 126 biochemical activity assays (enzyme assays or radioligand binding assays); test: 126 biochemical activity assays (enzyme assays or radioligand binding assays), MDS Pharma Service; settings: at 10 µmol/L; Table S5 (picture, not readable)
Excerpt: Based on these findings, we believe that SARM‐2f has no severe off‐target effects.

CC[C@H]1[C@@H](O)CC(=O)N1c1ccc(C#N)c(C(F)(F)F)c1 [SARM‐2f, 4′‐[(2S,3S)‐2‐Ethyl‐3‐hydroxy‐5‐oxopyrrolidin‐1‐yl]‐2′‐(trifluoromethyl) benzonitrile]
EC50 (rat AR; rat AR reporter assay (abstract), read-out: EC50): 2.5 nM
maximal activation (rat AR; rat AR, at 1 μmol/L, 1 μmol/L DHT = 100%): 118%
Blood level of HDL‐c ([1]; TE 2 mg/kg every 2 wks): only reduced in animals treated with 3 or 10 mg/kg
Blood level of LDL‐c ([1]; TE 2 mg/kg every 2 wks): lower
Blood level of TG ([1]; TE 2 mg/kg every 2 wks): lower
Blood level of T‐chol ([1]; TE 2 mg/kg every 2 wks): lower
Lp (a) protein level ([1]; TE 2 mg/kg every 2 wks): showed a tendency to be decreased
HDL‐c/LDL‐c ratio [1]: did not cause any significant change
Blood level of ALT [2]: not changed
Blood level of AST [2]: not changed
molecules affected in 126 biochemical activity assays [3]: the only molecule that SARM‐2f affected at 10 µmol/L was AR
